Measured values taken from patent publication US6706740B2, “Fungicidal heterocyclic aromatic amides and their compositions, methods of use and preparation” (Dow AgroSciences LLC, priority 1999, dated 2004).
Where two headings read alike, the source gives them in different places.

Legend:
[1] = test system: Mycosphaerella graminicola (Septoria tritici—SEPTTR); assay: In vitro fungal growth inhibition, Mycosphaerella graminicola (SEPTTR); assay type: cell-based; conditions: Zymoseptoria tritici, read-out: SEPTTR in vitro Growth Inhibition
[2] = test system: Magnaporthe grisea (Pyricularia oryzae—PYRIOR); assay: microbe, parasite or virus in culture; assay type: cell-based; conditions: Pyricularia oryzae, read-out: PYRIOR in vitro Growth Inhibition
Septoria tritici—SEPTTR = assay: Leaf Blotch of Wheat, in vivo whole plant, 24 Hour Protectant; conditions: control of fungal infection vs untreated plants; for pest or weed control at 100 ppm: Zymoseptoria tritici, 24 h, read-out: SEPTTR in vivo 1 Day Protectant
[3] = test system: Puccinia recondita—PUCCRT; assay: Brown Rust of Wheat, in vivo whole plant, 24 Hour Protectant; conditions: control of fungal infection vs untreated plants; for pest or weed control at 100 ppm: Puccinia, read-out: PUCCRT in vivo 1 Day Protectant
Ustilago maydis (USTIMA) = assay: microbe, parasite or virus in culture; assay type: cell-based; conditions: Mycosarcoma maydis, read-out: USTIMA in vitro Growth Inhibition
Erysiphe graminis—ERYSGT = assay: Powdery Mildew of Wheat, in vivo whole plant, 24 Hour Protectant; conditions: Erysiphe, control of fungal infection vs untreated plants, read-out: ERYSGT in vivo 1 Day Protectant
[4] = test system: Stagonospora nodorum (Leptosphaeria nodorum—LEPTNO); assay: In vitro fungal growth inhibition, Stagonospora nodorum (LEPTNO); assay type: cell-based; conditions: Leptosphaeria, read-out: LEPTNO in vitro Growth Inhibition
[5] = test system: Phytophthora infestans (PHYTIN); assay: microbe, parasite or virus in culture; assay type: cell-based; conditions: Phytophthora infestans, read-out: PHYTIN in vitro Growth Inhibition
[6] = test system: Leptosphaeria nodorum—LEPTNO; assay: Glume Blotch of Wheat, in vivo whole plant, 24 Hour Protectant; conditions: Leptosphaeria, control of fungal infection vs untreated plants, read-out: LEPTNO in vivo 1 Day Protectant
[7] = test system: Rhizoctonia solani (RHIZSO); assay: microbe, parasite or virus in culture; assay type: cell-based; conditions: Rhizoctonia solani, read-out: RHIZSO in vitro Growth Inhibition
[8] = test system: Phytophthora infestans—PHYTIN; assay: whole plant or invertebrate; assay type: in vivo; conditions: Phytophthora, in Solanum lycopersicum, 24 h, read-out: PHYTIN in vivo 1 Day Protectant
[9] = 100 ppm spray, 24 hour protectant, wheat
[10] = wheat plants sprayed at 100 ppm, inoculated after 24 hours

Structure (SMILES) | inhibition at 25 ppm ([1]; 25 ppm in growth medium) [%] | inhibition at 25 ppm [2] [%] | pest or weed control at 100 ppm (Septoria tritici—SEPTTR; [9]) [%] | pest or weed control at 100 ppm [3, 9] [%] | inhibition at 25 ppm (Ustilago maydis (USTIMA)) [%] | pest or weed control at 100 ppm (Erysiphe graminis—ERYSGT; [9]) [%] | inhibition at 25 ppm ([4]; 25 ppm in growth medium) [%] | inhibition at 25 ppm [5] [%] | pest or weed control at 100 ppm [6, 9] [%] | inhibition at 25 ppm [7] [%] | pest or weed control at 100 ppm [8] [%] | inhibition at 25 ppm ([1]; 25 ppm in the growth medium) [%] | pest or weed control at 100 ppm (Septoria tritici—SEPTTR; [10]) [%] | pest or weed control at 100 ppm [3, 10] [%] | pest or weed control at 100 ppm (Erysiphe graminis—ERYSGT; [10]) [%] | inhibition at 25 ppm ([4]; 25 ppm in the growth medium) [%] | pest or weed control at 100 ppm [6, 10] [%] | PUCCRT in vivo 1 Day Protectant [3, 10] | SEPTTR in vivo 1 Day Protectant (Septoria tritici—SEPTTR; [9])
COc1ccnc(C(=O)NC2CC(C)(C)C(=O)C(C)(C)C2)c1O [Compound 266] | < 80 | < 80 | 25 to 74 | < 25 | < 80 | < 25 | < 80 | < 80 | 25 to 74 | < 80 | < 25 |  |  |  |  |  |  |  | 
COc1ccnc(C(=O)N[C@H]2C[C@@H](C(F)(F)F)C[C@@H](C(F)(F)F)C2)c1OC(C)=O [Compound 576] |  | < 80 |  |  | < 80 |  |  | < 80 |  | < 80 | < 25 | < 80 | 25 to 74 | 25 to 74 | < 25 | < 80 | 25 to 74 |  | 
COc1ccnc(C(=O)NC2CC(C)(C)CC(C)(C(=O)OCCC(C)(C)C)C2)c1O (stereo not shown) [Compound 261] | > 80 | < 80 | 25 to 74 | 25 to 74 | < 80 | < 25 | > 80 | > 80 | 25 to 74 | < 80 | 25 to 74 |  |  |  |  |  |  |  | 
COc1ccnc(C(=O)NC2CC(C)(C)C(=O)C(C)(C)C2)c1OC(C)=O [Compound 575] |  | < 80 |  |  | < 80 |  |  | < 80 |  | < 80 | < 25 | < 80 | 25 to 74 | 25 to 74 | < 25 | < 80 | 25 to 74 |  | 
COc1ccnc(C(=O)NC2CCCCCCC2)c1O [Compound 282] | < 80 | < 80 | 25 to 74 | 25 to 74 | < 80 | < 25 | < 80 | < 80 | 25 to 74 | < 80 | < 25 |  |  |  |  |  |  |  | 
COc1ccnc(C(=O)NC(COC(=O)C(C)Cc2ccccc2)C(=O)OC(C)C)c1OC(C)=O (stereo not shown) [Compound 588] |  | < 80 |  |  | < 80 |  |  | < 80 |  | < 80 | < 25 | < 80 | < 25 |  | < 25 | < 80 | 25 to 74 | + + | 
CC(NC(=O)c1ncccc1O)c1ccc(Cl)cc1 (stereo not shown) [Compound 230] | > 80 | > 80 | 25 to 74 | < 25 | < 80 | < 25 | > 80 | > 80 | 25 to 74 | < 80 | < 25 |  |  |  |  |  |  |  | 
COc1ccnc(C(=O)NC2CC(C)(C)C(Oc3cc(C(F)(F)F)cc(C(F)(F)F)n3)C(C)(C)C2)c1O (stereo not shown) [Compound 272] | > 80 | < 80 |  | < 25 | < 80 | < 25 | < 80 | < 80 | 25 to 74 | < 80 | < 25 |  |  |  |  |  |  |  | + +
